# Laboratory results: patent publication US8466156B2, “2-phenyl-4-cyclopropyl-pyrimidine derivatives” (Actelion Pharmaceuticals Ltd., priority 2008, dated 2013)
# Molecular target: T1, human P2Y12 receptor (Homo sapiens, UniProt Q9H244)
# T1 construct: expressed in transfected cells; host or cells: Chinese Hamster Ovary (CHO) cells
# Assay: P2Y12 receptor binding assay (displacement of tritium-labeled 2-methyl-S-ADP on CHO cells)
# Details: CHO cells with recombinant expression of the human P2Y12 receptor, 2 hours at RT, Example compounds table
# Description: P2Y12 Receptor Binding Assay
# Chinese Hamster Ovary (CHO) cells with recombinant expression of the human P2Y12 receptor were cultured in 24 well cell-culture plates. Cells were washed three times with binding buffer (50 mM Tris pH 7.4, 100 mM NaCl, 1 mM EDTA, 0.5% BSA). The cells were then incubated with 0.5 ml per well binding buffer containing tritium-labeled 2-methyl-thio-adenosine 5′-diphosphate (2-methyl-S-ADP) (between 100'000 and 300'000 dpm per well) and various concentrations of test compounds. After incubation at RT for 2 hours, cells were washed three times with binding buffer. Then, cells were solubilized by addition of 0.5 ml solubilization buffer (SDS, NaOH, EDTA). The content of each well was then transferred into beta-counter vials and 2.0 ml of Ultima Gold Scintillation liquid was added.
# T1 sequence (Q9H244 whole entry): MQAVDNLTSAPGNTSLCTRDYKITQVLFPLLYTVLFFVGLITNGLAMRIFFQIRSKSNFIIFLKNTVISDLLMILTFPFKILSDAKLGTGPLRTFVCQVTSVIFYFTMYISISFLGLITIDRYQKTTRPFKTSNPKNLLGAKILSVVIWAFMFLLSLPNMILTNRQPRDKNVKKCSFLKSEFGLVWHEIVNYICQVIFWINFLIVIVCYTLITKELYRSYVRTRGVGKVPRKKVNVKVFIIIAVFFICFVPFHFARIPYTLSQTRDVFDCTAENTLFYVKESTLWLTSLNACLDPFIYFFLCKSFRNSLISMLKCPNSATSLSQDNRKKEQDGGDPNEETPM
row,SMILES,IC50 [nM]
1,"CCCCOC(=O)N1CCN(C(=O)[C@H](CCC(=O)O)NC(=O)c2cc([C@@H]3C[C@H]3COC)nc(-c3ccccc3)n2)CC1 (mixture of isomers) [Example 2, 4-((S)-4-carboxy-2-{[6-(trans-2-methoxymethyl-cyclopropyl)-2-phenyl-pyrimidine-4-carbonyl]-amino}-butyryl)-piperazine-1-carboxylic acid butyl ester]",3
2,"CCCCOC(=O)N1CCN(C(=O)[C@H](CCC(=O)O)NC(=O)c2cc([C@@H]3C[C@@H]3COC)nc(-c3ccccc3)n2)CC1 (mixture of isomers) [Example 6, 4-((S)-4-carboxy-2-{[6-(cis-2-methoxymethyl-cyclopropyl)-2-phenyl-pyrimidine-4-carbonyl]-amino}-butyryl)-piperazine-1-carboxylic acid butyl ester]",9
3,"CCCCOC(=O)N1CCN(C(=O)[C@H](CCC(=O)O)NC(=O)c2cc([C@H]3C[C@@H]3CO)nc(-c3ccccc3)n2)CC1 [Example 4, 4-((S)-4-carboxy-2-{[6-((1S,2S)-2-hydroxymethyl-cyclopropyl)-2-phenyl-pyrimidine-4-carbonyl]-amino}-butyryl)-piperazine-1-carboxylic acid butyl ester]",4

# Results, then the molecule that gave them:
row,IC50 [nM],SMILES
1,6,"CCCCOC(=O)N1CCN(C(=O)[C@H](CCC(=O)O)NC(=O)c2cc(C3CC3)nc(-c3ccccc3)n2)CC1 [Example 1, 4-{(S)-4-carboxy-2-[(6-cyclopropyl-2-phenyl-pyrimidine-4-carbonyl)-amino]-butyryl}-piperazine-1-carboxylic acid butyl ester]"
2,5,"CCCCOC(=O)N1CCN(C(=O)[C@H](CCC(=O)O)NC(=O)c2cc([C@H]3C[C@@H]3COC)nc(-c3ccccc3)n2)CC1 [Example 3, 4-((S)-4-carboxy-2-{[6-((1S,2S)-2-methoxymethyl-cyclopropyl)-2-phenyl-pyrimidine-4-carbonyl]-amino}-butyryl)-piperazine-1-carboxylic acid butyl ester]"
3,2,"CCCCOC(=O)N1CCN(C(=O)[C@H](CCC(=O)O)NC(=O)c2cc([C@H]3C[C@@H]3COC)nc(-c3ccc(F)cc3)n2)CC1 [Example 5, 4-((S)-4-carboxy-2-{[2-(4-fluoro-phenyl)-6-((1S,2S)-2-methoxymethyl-cyclopropyl)-pyrimidine-4-carbonyl]-amino}-butyryl)-piperazine-1-carboxylic acid butyl ester]"

# Same assay, conditions: CHO cells with recombinant expression of the human P2Y12 receptor, 2 hours at RT, comparison with reference compounds of WO 2006/114774
row,SMILES,IC50 [nM]
1,"CCOC(=O)N1CCN(C(=O)[C@H](CCC(=O)O)NC(=O)c2cc(C3CC3)nc(-c3ccccc3)n2)CC1 [Example 90 of WO 2006/114774, reference compound]",43
2,"CCOC(=O)N1CCN(C(=O)[C@H](CCC(=O)O)NC(=O)c2cc(C3CC3CO)nc(-c3ccccc3)n2)CC1 (some centres unmarked) [Example 500 of WO 2006/114774, reference compound]",23
